The values below are quoted from earlier work in patent US20080171724A1, “Phosphonate Derivatives of Mycophenolic Acid” (GILEAD SCIENCES, INC., priority 2004, published 2008).

The conditions of the data set: after oral or intravenous administration; converted to active metabolite mycophenolic acid.

`COc1c(C)c2c(c(O)c1C/C=C(\C)CCC(=O)OCCN1CCOCC1)C(=O)OC2` [Mycophenolate mofetil]: the “fraction of the drug cleared by glucuronidation and excreted in the urine” value is “over 90%”.
